Several values for one entry are separate records, joined by “and”; a condition that tells them apart may be missing. Equal values may be shown once. Read-outs that look alike come from different tables or passages of the source.
Columns and labels:
3D7^HDAC1-glmS = test: Sensitivity of transgenic parasites to JX21108, 3D7^HDAC1-glmS; type: cell-based, Plasmodium falciparum
Protocol: Highly synchronized schizont-stage parasites were prepared and treated as described above, with adjustments. […] After washing, parasites were cultured in new CM for another 68 h. Parasite growth was monitored by SYBR Green I staining, as described above. The EC50 was calculated by GraphPad Prism.

P. falciparum Dd2 = test: 3-day SYBR Green I GIA, multidrug-resistant strain Dd2; type: cell-based, Plasmodium falciparum; conditions: Plasmodium falciparum, 72 h; 3-day SYBR Green I GIA, multidrug-resistant strain Dd2; read-out: Antiplasmodial activity EC50, Dd2
Summary of the method: (§1)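 Sorbitol-synchronized ring-stage parasites at 1% parasitemia and 2% hematocrit, cultured 72 h with compounds at 1% DMSO final. Growth read by SYBR Green I staining. EC50 from curve fitting.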

P. yoelii = test: In vivo blood-stage inhibition assay; set-up: species or system Plasmodium yoelii in BALB/c mice
Protocol: Experiment 1: Five female BALB/c mice (6 weeks, 18 g) from each experimental group were infected with 1 × 10^5 rodent malaria parasite P. yoelii via intraperitoneal (i.p) injection. After 24 h, the mice were treated with 30, 60, or 90 mg/kg/day JX21108 via i.p injection and 20 mg/kg/day piperaquine phosphate (PPQ) as a positive control for 5 days. DMSO (5%) was used as a blank control.
Experiment 2: To analyze the differences in drug potency between racemic and enantiopure forms of JX21108, five female BALB/c mice (6 weeks, 18 g) per group were treated with 60 mg/kg/day (+)-JX21108, (−)-JX21108, or JX21108 as described above. Blood smears were made daily from the blood of veins and stained by Giemsa. Parasitemia was counted from at least 5000 RBCs by microscopy. The bodyweight of the mice and the number of deaths were recorded daily. All the graphs were generated by GraphPad Prism. All experimental procedures followed the National Institutes of Health Guide for the Care and Use of Laboratory Animals, as well as the guidelines of the Animal Welfare and Committee of Institut Pasteur of Shanghai, Chinese Academy of Science, IACUC issue No. A2018009.

[1] = Pharmacokinetic assay in mice; type: in vivo, BALB/c mice; conditions: 5 mg/kg i.p.
Protocol: Five female BALB/c mice (6–8 weeks, 18–19 g) per group were purchased from JH Laboratory Animal Co., Ltd. All mice were raised at controlled temperature and humidity and had free access to food and water. Compounds were dissolved in 5% DMSO and diluted with 20% aqueous 2-hydroxypropyl-β-cyclodextrin solution to a stock concentration of 0.5 mg/mL. Each mouse was i.p. injected with the compound solution at a dose of 5 mg/kg. Blood samples collected by anticoagulant (K2EDTA)-containing tubes at 0.25, 0.5, 1, 2, 4, 8, and 24 h after injection were centrifuged at 2000× g at 4 °C for 5 min to obtain plasma. LC-MS/MS analysis of samples was carried out by an ACQUITY UPLC HSS T3 1.8-μm column. The mobile phase was a mixture of phase A (0.1% formic acid in water) and phase B (0.1% formic acid in acetonitrile), which ran in gradient mode at a flow rate of 0.6 mL/min at 60 °C. Mass spectra were obtained on an API6500 triple quadrupole equipped with an ESI source. Propranolol was used as an internal standard. The plasma concentrations of the compounds were analyzed, and the pharmacokinetic parameters were calculated via WinNonlin.

[2] = In vitro cytotoxicity analysis (CellTiter-Glo), 293T; conditions: human, 293T cells, Cytotoxicity EC50, 293T, 72 h, CellTiter-Glo
Protocol: (§2) In all, 1% DMSO was used as a negative control. The inhibition of each drug was normalized to that of the DMSO control. EC50 was calculated by GraphPad Prism. Three independent assays with two technical replicates each time were conducted in this experiment.

293T cells = test: as above
Protocol: as §2

P. falciparum 3D7 = test: 3-day SYBR Green I growth inhibition assay (GIA), strain 3D7; type: cell-based, Plasmodium falciparum; conditions: 3-day SYBR Green I GIA, drug-sensitive strain 3D7, read-out: Antiplasmodial activity EC50, 3D7
Summary of the method: as §1

human HDACs = test: Human HDAC inhibition assay, summary; type: biochemical
Protocol: (§3) SAHA and suramin were used as positive controls. The tested compounds were dissolved into 20 mM stock in 100% DMSO. […] Ten microliters of trypsin and Ac-peptide substrate/Tris buffer solution were added to start the reaction, followed by a 1-h incubation at room temperature for HDACs 1–3 and 6. Ten microliters of Ac-peptide substrate/Tris buffer solution was added to start the reaction, followed by a 4-h incubation at room temperature and a further 2-h incubation with trypsin solution for HDAC8 and Sirt 2. […] This experiment was performed only once.

[3] = Liver microsome metabolism assay, mouse; type: in vitro ADME; conditions: for half-life at 1 µM: mouse, liver microsomes
Protocol: Liver microsomes (0.5 mg/mL) were purchased from Corning. Ketanserin was selected as a positive control. The tested compounds were first dissolved in DMSO to a concentration of 10 mM and then diluted to 0.5 mM with acetonitrile. Liver microsome buffer was used to dilute the compounds to a working concentration of 1.5 µM, 30 µL of which was mixed with 15 µL of 6 mM NADPH at 37 °C. At 0, 5, 15, 30, and 45 min after incubation, 135 µL of acetonitrile was added to quench the reaction. The mixture was shaken on a vortex mixer (IKA, MTS 2/4) for 10 min at 600 rpm/min and then centrifuged at 5594× g for 15 min (Thermo Multifuge×3R). The supernatant was diluted 1:1 into distilled water, and analyzed by LC-MS/MS.

P. falciparum C2A = test: 3-day SYBR Green I GIA, strain C2A; type: cell-based; conditions: Plasmodium falciparum, read-out: Resistant isolates EC50, C2A
Protocol: A 3-day SYBR Green I inhibition EC50 assay was performed as described previously. Briefly, highly synchronized ring-stage parasites by 5% sorbitol (1% parasitemia and 2% hematocrit) were incubated in a 96-well plate with compounds in a total volume of 200 μL. […] The parasites were cultured for 72 h before SYBR Green I staining as described above. The EC50 was calculated by GraphPad Prism. DHA was used as a positive control, and the final concentration of DMSO was 1%.

hHDAC8 = target: T1, hHDAC8 (Homo sapiens, UniProt Q9BY41); test: Human HDAC inhibition assay, hHDAC8; type: biochemical; conditions: performed only once; read-out: Inhibitory Activity IC50, hHDAC8
T1 construct: purchased BPS Bioscience 50008
T1 sequence (Q9BY41 whole entry): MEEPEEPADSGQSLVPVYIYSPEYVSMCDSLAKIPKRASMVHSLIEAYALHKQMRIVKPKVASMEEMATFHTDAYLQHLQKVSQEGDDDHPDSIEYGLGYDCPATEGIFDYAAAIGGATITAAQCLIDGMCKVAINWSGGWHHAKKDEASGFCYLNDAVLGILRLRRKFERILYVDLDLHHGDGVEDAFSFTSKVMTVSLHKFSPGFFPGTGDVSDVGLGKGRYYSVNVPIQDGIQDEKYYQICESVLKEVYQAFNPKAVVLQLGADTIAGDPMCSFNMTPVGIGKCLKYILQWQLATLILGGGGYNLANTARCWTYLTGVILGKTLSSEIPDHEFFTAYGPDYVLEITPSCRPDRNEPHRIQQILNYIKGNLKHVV
Protocol: as §3

[4] = 30 mg/kg and 60 mg/kg treatment groups, i.p., 5 days
[5] = female, BALB/c, mouse, plasma, ip

Cl.Cn1cc(CN2CCC3(CCN(c4ncc(C(=O)NO)cn4)C3)C2)c2cc(C#N)ccc21 (stereo not shown) [JX21108]
shift in sensitivity on PfHDAC1 KD (3D7^HDAC1-glmS; 3D7^HDAC1-glmS vs 3D7^HDAC1-TY1): 5.5 fold | EC50 (3D7^HDAC1-glmS; Plasmodium falciparum, 3D7, 4 h, read-out: EC50 for 3D7^HDAC1-glmS): 20.5 ± 6.95 nM | EC50 (P. falciparum Dd2): 4 nM | day on which parasites were completely cleaned up (P. yoelii; [4]): 17 days | day till which parasites were detected (P. yoelii; [4]): 8 days | relapse of malaria (P. yoelii; 90 mg/kg treatment group, i.p., 5-day treatment): no relapse of malaria was observed | survival of infected mice (P. yoelii; JX21108-treated groups 30–90 mg/kg): all the mice survived | in vivo antiplasmodial activity in P. yoelii-infected mice (P. yoelii; all doses tested (30–90 mg/kg), i.p., 5 days): strong in vivo antiplasmodial activity | V/F [1]: 15.4 L/kg | AUC(0-inf) [1, 5]: 434 ng·h/mL | AUC(0-t) [1, 5]: 432 ng·h/mL | half-life [1, 5]: 0.926 h | CL/F ([1]; female, BALB/c, mouse, plasma, ip, read-out: CL/F (converted)): 192 mL/min/kg | Cmax ([1]; female, BALB/c, mouse, plasma, ip, read-out: Cmax): 511 ng/mL | Tmax ([1]; female, BALB/c, mouse, plasma, ip, read-out: Tmax): 0.25 h | EC50 at 72 h [2]: 1190 ± 233 nM | Selectivity index for 293T (EC50 293T/EC50 3D7) (293T cells): ~ 331 and 334 and 331 | EC50 (P. falciparum 3D7): 3.57 ± 0.06 nM | EC50 (P. falciparum 3D7; Plasmodium falciparum, 3D7, 72 h): 3.6 nM | lower inhibitory activity on human HDACs than quisinostat (human HDACs): approximately 4 fold | CLint scaled at 1 µM ([3]; mouse liver microsomes, read-out: CL in liver microsomes): 7.32 mL/min/kg | half-life at 1 µM ([3]; read-out: T1/2 in liver microsomes): 12.4 h | half-life at 1 µM ([3]; read-out: half-life in mouse liver microsomes (converted)): 12.4 h | EC50 (P. falciparum C2A): 2.9 ± 0.7 nM | IC50 (hHDAC8): 62 nM

Source: PMC7733455, “A novel multistage antiplasmodial inhibitor targeting Plasmodium falciparum histone deacetylase 1” (Cell Discovery, 2020)
